Reference: ChEMBL document CHEMBL4190162, “SAR and identification of 2-(quinolin-4-yloxy)acetamides as Mycobacterium tuberculosis cytochrome bc1 inhibitors” (Medchemcomm, 2016)
Converted amounts (≈) assume the structure as drawn. The source made the active and inactive calls. The rule behind the calls is not given here.

Assays:
[1] = tested on: Mycobacterium tuberculosis; test: Antimycobacterial activity against Mycobacterium tuberculosis H37Rv after 2 weeks by microplate alamar blue assay; type: functional; conditions: 336 h
[2] = tested on: Mycobacterium tuberculosis; test: Antimycobacterial activity against Mycobacterium tuberculosis H37Rv measured after 1 week; type: functional; conditions: 168 h
[3] = tested on: Mycobacterium tuberculosis; test: Antimycobacterial activity against Mycobacterium tuberculosis H37Rv measured after 2 weeks; type: functional; conditions: 336 h
[4] = tested on: Mycobacterium tuberculosis; test: Antimycobacterial activity against Mycobacterium tuberculosis H37Rv BSG001; type: functional, organism-based
[5] = tested on: Mycobacterium tuberculosis H37Rv; test: Inhibition of Mycobacterium tuberculosis H37Rv cytochrome bc1 oxidase assessed as reduction in ATP level measured up to 24 hrs under anaerobic condition
[6] = tested on: Escherichia coli; test: Antibacterial activity against Escherichia coli 25922; type: functional, organism-based; conditions: ATCC 25922
[7] = tested on: Staphylococcus aureus; test: Antibacterial activity against Staphylococcus aureus XEN36; type: functional, organism-based
[8] = tested on: Mycolicibacterium smegmatis; test: Antibacterial activity against Mycobacterium smegmatis; type: functional, organism-based
[9] = tested on: Mycobacteroides abscessus; test: Antibacterial activity against Mycobacterium abscessus; type: functional, organism-based
[10] = Cytotoxicity against human HepG2 cells after 24 to 48 hrs in presence of galactose by trypan blue dye-based hemocytometric method; type: cell-based
[11] = Cytotoxicity against human HepG2 cells after 24 to 48 hrs in presence of glucose by trypan blue dye-based hemocytometric method; type: cell-based

COc1ccccc1NC(=O)COc1cc(C)nc2ccc(Cl)cc12
MIC [1]: 104 µM (≈ 37 µg/mL)
MIC [2]: 26.4 µM (≈ 9.4 µg/mL)
MIC [3]: > 140 µM
Activity [4]: inactive
inhibition [5]: Active
Activity [6]: inactive
Activity [7]: inactive
Activity [8]: inactive
Activity [9]: inactive
CC50 [10]: 99.2 µM
CC50 [11]: 140 µM

COc1ccc2nc(C)cc(OCC(=O)Nc3ccc(C)cc3)c2c1
MIC [1]: 0.45 µM (≈ 0.151 µg/mL)
MIC [2]: 0.45 µM (≈ 0.151 µg/mL)
MIC [3]: > 149 µM
Activity [4]: inactive
inhibition [5]: Active
Activity [6]: inactive
Activity [7]: inactive
Activity [8]: inactive
Activity [9]: inactive
CC50 [10]: 41.5 µM
CC50 [11]: > 149 µM

C#CCNC(=O)COc1cc(C)nc2ccc(OC)cc12
MIC [1]: > 176 µM
MIC [2]: > 176 µM
MIC [3]: > 176 µM
Activity [4]: inactive
inhibition [5]: Active
Activity [6]: inactive
Activity [7]: inactive
Activity [8]: inactive
Activity [9]: inactive
CC50 [10]: > 176 µM
CC50 [11]: > 176 µM

COc1cc(NC(=O)COc2cc(C)nc3ccc(OC)cc23)cc(OC)c1
MIC [1]: 24.6 µM (≈ 9.4 µg/mL)
MIC [2]: > 131 µM
MIC [3]: > 131 µM
Activity [4]: inactive
inhibition [5]: Active
Activity [6]: inactive
Activity [7]: inactive
Activity [8]: inactive
Activity [9]: inactive
CC50 [10]: > 131 µM
CC50 [11]: > 131 µM

COc1ccc2nc(C)cc(OCC(=O)NCCc3ccc(OC)c(OC)c3)c2c1
MIC [1]: 122 µM (≈ 50.1 µg/mL)
MIC [2]: > 122 µM
MIC [3]: > 122 µM
Activity [4]: inactive
inhibition [5]: Active
Activity [6]: inactive
Activity [7]: inactive
Activity [8]: inactive
Activity [9]: inactive
CC50 [10]: > 122 µM
CC50 [11]: > 122 µM

COc1ccc2nc(C)cc(OCC(=O)Nc3ccc(Cl)cc3)c2c1
MIC [1]: 3.36 µM (≈ 1.2 µg/mL)
MIC [2]: 104 µM (≈ 37 µg/mL)
MIC [3]: > 140 µM
Activity [4]: inactive
inhibition [5]: Active
Activity [6]: inactive
Activity [7]: inactive
Activity [8]: inactive
Activity [9]: inactive
CC50 [10]: 71.1 µM
CC50 [11]: 89.9 µM

COc1ccccc1NC(=O)COc1cc(C)nc2ccc(Br)cc12
MIC [1]: > 125 µM
MIC [2]: 23.4 µM (≈ 9.4 µg/mL)
MIC [3]: > 125 µM
Activity [4]: inactive
inhibition [5]: Active
Activity [6]: inactive
Activity [7]: inactive
Activity [8]: inactive
Activity [9]: inactive
CC50 [10]: > 125 µM
CC50 [11]: > 125 µM

COc1ccc2nc(C)cc(OCC(=O)Nc3ccc(-c4ccccc4)cc3)c2c1
MIC [1]: 1.51 µM (≈ 0.602 µg/mL)
MIC [2]: > 125 µM
MIC [3]: > 125 µM
Activity [4]: inactive
inhibition [5]: Active
Activity [6]: inactive
Activity [7]: inactive
Activity [8]: inactive
Activity [9]: inactive
CC50 [10]: > 126 µM
CC50 [11]: > 126 µM

COc1ccccc1NC(=O)COc1cc(C)nc2ccccc12
MIC [1]: > 78 µM
MIC [2]: 38.8 µM (≈ 12.5 µg/mL)
MIC [3]: > 155 µM
Activity [4]: inactive
inhibition [5]: Active
Activity [6]: inactive
Activity [7]: inactive
Activity [8]: inactive
Activity [9]: inactive
CC50 [10]: 8.64 µM
CC50 [11]: 43.9 µM

COc1ccc2nc(C)cc(OCC(=O)NCCc3ccccc3)c2c1
MIC [1]: 54.2 µM (≈ 19 µg/mL)
MIC [2]: 143 µM (≈ 50 µg/mL)
MIC [3]: > 143 µM
Activity [4]: inactive
inhibition [5]: Active
Activity [6]: inactive
Activity [7]: inactive
Activity [8]: inactive
Activity [9]: inactive
CC50 [10]: 83.9 µM
CC50 [11]: 61.4 µM

COc1ccc2nc(C)cc(OCC(=O)Nc3cccc(Br)c3)c2c1
MIC [1]: > 125 µM
MIC [2]: 92.2 µM (≈ 37 µg/mL)
MIC [3]: > 125 µM
Activity [4]: inactive
inhibition [5]: Active
Activity [6]: inactive
Activity [7]: inactive
Activity [8]: inactive
Activity [9]: inactive
CC50 [10]: > 125 µM
CC50 [11]: > 125 µM

COc1cccc(NC(=O)COc2cc(C)nc3ccc(OC)cc23)c1
MIC [1]: 6.53 µM (≈ 2.3 µg/mL)
MIC [2]: 142 µM (≈ 50 µg/mL)
MIC [3]: > 142 µM
Activity [4]: inactive
inhibition [5]: Active
Activity [6]: inactive
Activity [7]: inactive
Activity [8]: inactive
Activity [9]: inactive
CC50 [10]: 24.7 µM
CC50 [11]: 43 µM

CC(=O)NC[C@H]1CN(c2ccc(N3CCOCC3)c(F)c2)C(=O)O1 [LINEZOLID]
MIC [1]: 2.3 µM (≈ 0.776 µg/mL)
MIC [2]: 2.3 µM (≈ 0.776 µg/mL)
MIC [3]: 2.3 µM (≈ 0.776 µg/mL)
inhibition [5]: inactive

Nc1ccc(C(=O)O)c(O)c1 [AMINOSALICYLIC ACID]
MIC [1]: 0.3 µM (≈ 0.0459 µg/mL)
MIC [2]: 0.3 µM (≈ 0.0459 µg/mL)
MIC [3]: 0.6 µM (≈ 0.0919 µg/mL)

COc1nc2ccc(Br)cc2cc1[C@@H](c1ccccc1)[C@@](O)(CCN(C)C)c1cccc2ccccc12
inhibition [5]: Active

COc1ccc2nc(C)cc(OCC(=O)NCCc3ccc4c(c3)OCO4)c2c1
MIC [1]: 31.7 µM (≈ 12.5 µg/mL)
MIC [2]: ≥ 127 µM
MIC [3]: > 127 µM
Activity [4]: inactive
inhibition [5]: Active
Activity [6]: inactive
Activity [7]: inactive
Activity [8]: inactive
Activity [9]: inactive
CC50 [10]: > 127 µM
CC50 [11]: > 127 µM

COc1ccc2nc(C)cc(OCC(=O)NCc3ccc4c(c3)OCO4)c2c1
MIC [1]: 0.53 µM (≈ 0.202 µg/mL)
MIC [2]: 0.53 µM (≈ 0.202 µg/mL)
MIC [3]: 24.7 µM (≈ 9.4 µg/mL)
Activity [4]: inactive
inhibition [5]: Active
Activity [6]: inactive
Activity [7]: inactive
Activity [8]: inactive
Activity [9]: inactive
CC50 [10]: 86.9 µM
CC50 [11]: > 131 µM

CCCCCNC(=O)COc1cc(C)nc2ccc(OC)cc12
MIC [1]: 19.8 µM (≈ 6.25 µg/mL)
MIC [2]: 158 µM (≈ 50 µg/mL)
MIC [3]: 158 µM (≈ 50 µg/mL)
Activity [4]: inactive
inhibition [5]: Active
Activity [6]: inactive
Activity [7]: inactive
Activity [8]: inactive
Activity [9]: inactive
CC50 [10]: 106 µM
CC50 [11]: > 158 µM

COc1ccc2nc(C)cc(OCC(=O)Nc3ccc(Br)cc3)c2c1
MIC [1]: 1.94 µM (≈ 0.778 µg/mL)
MIC [2]: > 125 µM
MIC [3]: > 125 µM
Activity [4]: inactive
inhibition [5]: Active
Activity [6]: inactive
Activity [7]: inactive
Activity [8]: inactive
Activity [9]: inactive
CC50 [10]: > 125 µM
CC50 [11]: > 125 µM

COc1ccc2nc(C)cc(OCC(=O)Nc3ccc(OC)c(OC)c3)c2c1
MIC [1]: 24.6 µM (≈ 9.4 µg/mL)
MIC [2]: > 131 µM
MIC [3]: > 131 µM
Activity [4]: inactive
inhibition [5]: Active
Activity [6]: inactive
Activity [7]: inactive
Activity [8]: inactive
Activity [9]: inactive
CC50 [10]: > 131 µM
CC50 [11]: > 131 µM

COc1ccc2nc(C)cc(OCC(=O)NCCCc3ccccc3)c2c1
MIC [1]: 25.8 µM (≈ 9.4 µg/mL)
MIC [2]: 68.6 µM (≈ 25 µg/mL)
MIC [3]: 68.6 µM (≈ 25 µg/mL)
Activity [4]: inactive
inhibition [5]: Active
Activity [6]: inactive
Activity [7]: inactive
Activity [8]: inactive
Activity [9]: inactive
CC50 [10]: 50.7 µM
CC50 [11]: > 137 µM

COc1ccc(NC(=O)COc2cc(C)nc3ccc(OC)cc23)c(OC)c1
MIC [1]: 2.04 µM (≈ 0.78 µg/mL)
MIC [2]: 24.6 µM (≈ 9.4 µg/mL)
MIC [3]: 32.7 µM (≈ 12.5 µg/mL)
Activity [4]: inactive
inhibition [5]: Active
Activity [6]: inactive
Activity [7]: inactive
Activity [8]: inactive
Activity [9]: inactive
CC50 [10]: > 131 µM
CC50 [11]: > 131 µM

COc1ccccc1NC(=O)COc1cc(C)nc2ccc(C)cc12
MIC [1]: 9.3 µM (≈ 3.13 µg/mL)
MIC [2]: 56.5 µM (≈ 19 µg/mL)
MIC [3]: > 74 µM
Activity [4]: inactive
inhibition [5]: Active
Activity [6]: inactive
Activity [7]: inactive
Activity [8]: inactive
Activity [9]: inactive
CC50 [10]: > 74 µM
CC50 [11]: > 74 µM

CCCCCC[C@H]1C(=O)O[C@H](C)[C@H](NC(=O)c2cccc(NC=O)c2O)C(=O)O[C@@H](C)[C@@H]1OC(=O)CC(C)C [ANTIMYCIN A]
CC50 [10]: 0.017 µM
CC50 [11]: > 50 µM

COc1ccc(NC(=O)COc2cc(C)nc3ccc(OC)cc23)cc1
MIC [1]: 1.11 µM (≈ 0.391 µg/mL)
MIC [2]: 2.21 µM (≈ 0.779 µg/mL)
MIC [3]: > 142 µM
Activity [4]: inactive
inhibition [5]: Active
Activity [6]: inactive
Activity [7]: inactive
Activity [8]: inactive
Activity [9]: inactive
CC50 [10]: > 142 µM
CC50 [11]: > 142 µM

COCCNC(=O)COc1cc(C)nc2ccc(OC)cc12
MIC [1]: 122 µM (≈ 37 µg/mL)
MIC [2]: > 164 µM
MIC [3]: > 164 µM
Activity [4]: inactive
inhibition [5]: Active
Activity [6]: inactive
Activity [7]: inactive
Activity [8]: inactive
Activity [9]: inactive
CC50 [10]: > 164 µM
CC50 [11]: > 164 µM

COc1ccc2nc(C)cc(OCC(=O)Nc3ccc4c(c3)OCO4)c2c1
MIC [1]: 2.13 µM (≈ 0.78 µg/mL)
MIC [2]: 4.26 µM (≈ 1.56 µg/mL)
MIC [3]: > 136 µM
Activity [4]: inactive
inhibition [5]: Active
Activity [6]: inactive
Activity [7]: inactive
Activity [8]: inactive
Activity [9]: inactive
CC50 [10]: 39.6 µM
CC50 [11]: 80 µM

c1ccc(Cn2cnc3c(-c4ccco4)nccc32)cc1
MIC [1]: 1.56 µM (≈ 0.429 µg/mL)
MIC [2]: 12.5 µM (≈ 3.44 µg/mL)
MIC [3]: > 25 µM
inhibition [5]: Active
CC50 [10]: > 25 µM
CC50 [11]: > 25 µM
